For data set [1], the system named is Rattus norvegicus. Put plainly: Reduction of blood lymphocyte level in Lewis rat at 1 mg/kg, po measured at 4 hrs by hematology analyzer relative to vehicle-treated control. The format is functional. The arrangement: scale not given: the % may be the effect or the level left.
The species named for the next data set is Homo sapiens. As to the kind of experiment: Selectivity ratio of EC50 for human S1P3 receptor to EC50 for human S1P1 receptor.
Data set [2] in a line: Plasma concentration in Lewis rat at 1 mg/kg, po measured at 24 hrs. It is filed as ADME, organism-based.
A further data set has as its system Plasma. As to the kind of experiment: Ratio drug level in Lewis rat plasma at 1 mg/kg, po at 4 hrs to drug level in Lewis rat plasma at 1 mg/kg, po at 24 hrs. It is filed as ADME, organism-based. To be noted: in vivo.
Data set [3] in a line: Plasma concentration in Lewis rat at 1 mg/kg, po measured at 4 hrs. It is filed as ADME, organism-based.
Data set [4] concerns Rattus norvegicus. As to the kind of experiment: Reduction of blood lymphocyte level in Lewis rat at 1 mg/kg, po measured at 24 hrs by hematology analyzer relative to vehicle-treated control. Set-up: scale not given: the % may be the effect or the level left. The format is functional.
The target in data set [5] is Sphingosine 1-phosphate receptor 1 (Homo sapiens, UniProt P21453). As to the kind of experiment: Agonist activity at human S1P1 receptor expressed in CHO cell membranes after 45 mins by [35S]-GTPgammaS binding assay. It is filed as functional. A general note: GTPγS is a poorly hydrolysed GTP analogue; its binding reports G protein activation.
Sequence of Sphingosine 1-phosphate receptor 1 (P21453 whole entry): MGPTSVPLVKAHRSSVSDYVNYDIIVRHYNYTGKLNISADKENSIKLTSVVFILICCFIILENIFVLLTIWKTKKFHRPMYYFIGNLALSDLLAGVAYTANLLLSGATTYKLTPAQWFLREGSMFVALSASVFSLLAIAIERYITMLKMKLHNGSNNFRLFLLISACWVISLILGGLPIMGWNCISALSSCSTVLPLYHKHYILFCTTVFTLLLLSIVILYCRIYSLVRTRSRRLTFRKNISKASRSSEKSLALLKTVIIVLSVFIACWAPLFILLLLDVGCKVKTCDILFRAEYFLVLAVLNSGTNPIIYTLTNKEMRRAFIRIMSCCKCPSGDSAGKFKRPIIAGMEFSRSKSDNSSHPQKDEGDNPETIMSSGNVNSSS
Data set [6] has as its target Sphingosine 1-phosphate receptor 3 (Homo sapiens, UniProt Q99500). Put plainly: Agonist activity at human S1P3 receptor expressed in EDG3-Ga15-bla HEK293T cell membranes after 45 mins by [35S]-GTPgammaS binding assay. The format is functional, HEK-293T.
A further data set has as its system Mus musculus. As to the kind of experiment: Reduction in clinical score in C57BL/6 mouse experimental autoimmune encephalomyelitis model of multiple sclerosis at 1 mg/kg, po qd for 24 days started from day of immunization measured 3 times per week of compound dosing. The format is functional, organism-based.

These results are taken from ChEMBL document CHEMBL3797106, “Potent and Selective Agonists of Sphingosine 1-Phosphate 1 (S1P1): Discovery and SAR of a Novel Isoxazole Based Series” (J Med Chem, 2016).

The source made the active and inactive calls. The calls are words filed in the database; no cut-off is given here. A value given as a limit tells only on which side of the number the result lay.

Sequence of Sphingosine 1-phosphate receptor 3 (Q99500 whole entry): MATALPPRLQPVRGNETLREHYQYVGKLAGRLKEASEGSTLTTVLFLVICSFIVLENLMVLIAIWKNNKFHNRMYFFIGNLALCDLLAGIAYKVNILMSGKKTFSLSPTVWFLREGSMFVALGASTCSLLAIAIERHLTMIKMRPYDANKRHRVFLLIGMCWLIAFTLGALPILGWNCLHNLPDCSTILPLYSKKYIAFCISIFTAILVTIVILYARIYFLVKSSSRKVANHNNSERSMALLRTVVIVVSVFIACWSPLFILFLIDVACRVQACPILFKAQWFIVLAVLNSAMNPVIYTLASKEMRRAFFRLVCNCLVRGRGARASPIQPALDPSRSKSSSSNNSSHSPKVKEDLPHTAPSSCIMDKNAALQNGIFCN

With `CC(C)Cc1onc(-c2nc(-c3ccc(CN4CC(C(=O)O)C4)cc3)no2)c1C(F)(F)F`, the Activity in the data set with Rattus norvegicus [1] came out at 88%; with Rattus norvegicus [4], 83%. The Ratio EC50 in the data set filed under Homo sapiens is 16000. The same compound had a concentration at 24 h in [2] of 280 nM. Also, the Ratio in the data set on Plasma turned out to be 6. For the same compound, the concentration at 4 h in data set [3] was 1600 nM. The EC50 (in general, the concentration giving half of the maximal effect) in data set [5] amounted to 0.39 nM; in data set [6] it was 6200 nM.
On to `CC(C)c1c(-c2nc(-c3ccc(CN4CC(C(=O)O)C4)cc3)no2)noc1-c1ccccc1`, for which the Ratio EC50 in the data set listed under Homo sapiens came to 4000. Besides, the figures for the EC50 in data set [5] and in data set [6] were 1.3 nM and 5100 nM, respectively.
Consider `CCCc1c(-c2ccccc2)noc1-c1nc(-c2ccc(CN3CC(C(=O)O)C3)cc2)no1`, for which the Activity was 85% with Rattus norvegicus [1] and 82% in the data set on Rattus norvegicus [4]. In addition, the Ratio EC50 in the data set listed under Homo sapiens worked out at 2300. The same compound yielded a concentration at 24 h in data set [2] of 11 nM. The Ratio in the data set on Plasma stood at 15. This compound also gave a concentration at 4 h in data set [3] of 170 nM. Besides, the EC50 in data set [5] came out at 0.44 nM; in data set [6] it was 1000 nM.
Turning to `O=C(O)C1CN(Cc2ccc(-c3noc(-c4noc(-c5ccccc5)c4-c4ccccc4)n3)cc2)C1`, the Ratio EC50 in the data set listed under Homo sapiens is 130. Further, the results for the EC50 in data set [5] and in data set [6] were 0.99 nM and 130 nM, respectively.
As for `CCCc1c(-c2nc(-c3ccc(CN4CC(C(=O)O)C4)cc3)no2)noc1CC(C)C`, the Activity turned out to be 86% in the data set with Rattus norvegicus [1] and 78% with Rattus norvegicus [4]. Also, the Ratio EC50 in the data set filed under Homo sapiens was 2900. Besides, the concentration at 24 h in data set [2] amounted to 41 nM. For the same compound, the Ratio in the data set with Plasma is reported as 33. Also, in data set [3], the concentration at 4 h was found to be 1300 nM. For the same compound, the EC50 came out at 0.3 nM in data set [5] and 850 nM in data set [6].
Regarding `Cc1c(-c2ccccc2)noc1-c1nc(-c2ccc(CN3CC(C(=O)O)C3)cc2)no1`, the Ratio EC50 in the data set filed under Homo sapiens is 5500. In addition, the figures for the EC50 in data set [5] and in data set [6] were 1.7 nM and 9200 nM, respectively.
Take `O=C(O)C1CN(Cc2ccc(-c3noc(-c4cc(-c5ccccc5)on4)n3)cc2)C1`: the Activity with Rattus norvegicus [1] was found to be 22%; with Rattus norvegicus [4], 0%. Further, the Ratio EC50 in the data set filed under Homo sapiens was found to be 150. In data set [3], this compound displayed a concentration at 4 h of 140 nM. Moreover, the EC50 in data set [5] came out at 44 nM; in data set [6], 6300 nM.
On to `Cc1c(-c2nc(-c3ccc(CN4CC(C(=O)O)C4)cc3)no2)noc1-c1ccccc1`, for which the Activity in the data set with Rattus norvegicus [1] stood at 68%; in the data set on Rattus norvegicus [4], 0%. Also, the Ratio EC50 in the data set filed under Homo sapiens was above 6300. Besides, in data set [2], the concentration at 24 h stood at 6.4 nM. In addition, the Ratio with Plasma was 41. The same compound showed a concentration at 4 h in data set [3] of 260 nM. The EC50 in [5] was 5 nM; in data set [6], above 31 nM.
As to `CC(C)(C)c1c(-c2nc(-c3ccc(CN4CC(C(=O)O)C4)cc3)no2)noc1-c1ccccc1`, the Activity in the data set with Rattus norvegicus [1] is given as 73%; in the data set on Rattus norvegicus [4], 52%. Further, in the data set listed under Homo sapiens, the Ratio EC50 was 500. This compound also yielded a concentration at 24 h in [2] of 55 nM. Moreover, in the data set on Plasma, the Ratio stood at 9. The concentration at 4 h in data set [3] came to 520 nM. The EC50 in data set [5] amounted to 5.3 nM; in data set [6], 2600 nM.
For the compound `CCc1c(-c2nc(-c3ccc(CN4CC(C(=O)O)C4)cc3)no2)noc1-c1ccccc1`, the Activity in the data set with Rattus norvegicus [1] is on record as 76%; with Rattus norvegicus [4] it was 52%. For the same compound, the Ratio EC50 in the data set listed under Homo sapiens was determined as 7500. The compound further returned a concentration at 24 h in [2] of 29 nM. In addition, in the data set with Plasma, the Ratio stood at 11. For the same compound, in data set [3], the concentration at 4 h stood at 320 nM. Also, the concentration giving a half-maximal response (EC50) worked out at 1.6 nM in data set [5] and 12000 nM in data set [6].
Regarding `CCCCCCCCc1ccc(CCC(N)(CO)CO)cc1`, the outcome with Mus musculus was Active.
Regarding `CCCc1c(-c2nc(-c3ccc(CN4CC(C(=O)O)C4)cc3)no2)noc1-c1ccccc1`, the Activity was 85% in the data set on Rattus norvegicus [1] and 60% in the data set with Rattus norvegicus [4]. Further, the Ratio EC50 in the data set listed under Homo sapiens stood at 2900. For the same compound, in data set [2], the concentration at 24 h came to 7.9 nM. Moreover, the Ratio in the data set on Plasma was 31. Besides, in data set [3], the concentration at 4 h is 250 nM. Further, the EC50 was 0.44 nM in data set [5] and 1300 nM in data set [6].
`CC(F)(F)c1c(-c2nc(-c3ccc(CN4CC(C(=O)O)C4)cc3)no2)noc1-c1ccccc1`: the Activity was found to be 81% in the data set on Rattus norvegicus [1] and 82% in the data set with Rattus norvegicus [4]. For the same compound, the Ratio EC50 in the data set listed under Homo sapiens was 3500. In [2], this compound had a concentration at 24 h of 100 nM. In addition, the Ratio in the data set with Plasma turned out to be 14. The same compound displayed a concentration at 4 h in [3] of 1400 nM. Also, the EC50 in [5] stood at 0.54 nM; in [6], 1900 nM.
Consider `CC(C)Cc1c(-c2nc(-c3ccc(CN4CC(C(=O)O)C4)cc3)no2)noc1-c1ccccc1`, for which the Activity in the data set on Rattus norvegicus [1] was 80%; with Rattus norvegicus [4], 82%. Besides, in the data set filed under Homo sapiens, the Ratio EC50 was determined as 1300. The compound also came in with a concentration at 24 h in data set [2] of 30 nM. Besides, the Ratio in the data set with Plasma came out at 6. Moreover, the concentration at 4 h in [3] is 190 nM. Further, the EC50 is 0.56 nM in data set [5] and 730 nM in [6].
As for `O=C(O)C1CN(Cc2ccc(-c3noc(-c4cc(-c5ccccc5)no4)n3)cc2)C1`, the EC50 in data set [5] was found to be 25 nM.
`O=C(O)C1CN(Cc2ccc(-c3noc(-c4noc(-c5ccccc5)c4C4CC4)n3)cc2)C1`: the Ratio EC50 in the data set listed under Homo sapiens came to 540. Further, the EC50 was 3.2 nM in [5] and 1800 nM in data set [6].
In the case of `CCCCc1c(-c2nc(-c3ccc(CN4CC(C(=O)O)C4)cc3)no2)noc1-c1ccccc1`, the Activity with Rattus norvegicus [1] stood at 82%; in the data set on Rattus norvegicus [4], 60%. Also, the concentration at 24 h in data set [2] is 5 nM. For the same compound, in the data set on Plasma, the Ratio is on record as 16. In data set [3], this compound came in with a concentration at 4 h of 81 nM.
Turning to `O=C(O)C1CN(Cc2ccc(-c3noc(-c4noc(-c5ccccc5)c4C(F)(F)F)n3)cc2)C1`, the Activity in the data set with Rattus norvegicus [1] is 84%; in the data set on Rattus norvegicus [4], 85%. In the data set filed under Homo sapiens, the Ratio EC50 was 4100. Besides, the concentration at 24 h in data set [2] amounted to 180 nM. Moreover, in the data set on Plasma, the Ratio worked out at 6. For the same compound, in [3], the concentration at 4 h came out at 1100 nM. Besides, the values for the EC50 in data set [5] and in data set [6] were 0.98 nM and 4100 nM, respectively.
